Columns and labels:
[1] = tested on: Aphids - Sour Gum; experiment: Field trial, stomach poison test; format: in vivo
In short: (§1)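 Treated foliage (dipped, or sprayed at 10 psi, then dried) is offered to counted insects in dishes. Scoring of mortality uses a 0–9 scale at three time points up to 72 h.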

[2] = tested on: Potato Flea Beetle Adults; experiment: Field trial, stomach poison test; format: in vivo
In short: as §1

[3] = tested on: Aphids - Apple; experiment: Field trial, stomach poison test; format: in vivo
In short: as §1

[4] = tested on: Meadow Spittlebug; experiment: Field trial, stomach poison test; format: in vivo
In short: as §1

[5] = tested on: Aphids - Tulip Tree; experiment: Field trial, stomach poison test; format: in vivo
In short: as §1

[6] = tested on: Alfalfa Weevil Larvae; experiment: Field trial, stomach poison test; format: in vivo
In short: as §1

[7] = tested on: Boll Weevil; experiment: Field trial (first summer), topical; format: in vivo, Anthonomus grandis
In short: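 Field trial from the first summer in which 1 µl of test solution holding a set number of micrograms of benzimidazole was applied topically to larvae or adult insects. Mortality at a given route and concentration was scored on a 0–9 scale.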

[8] = tested on: Alfalfa Weevil Larvae; experiment: Field trial, topical application; format: in vivo
Experimental: (§2) The results are read at 24, 48, and 72 hours when applicable. The rating scale is 0 to 9 where 0 = 0-10 percent and 9 = 91-100 percent mortality.
In a variation of the above test, 1 microliter of a test solution containing a predetermined number of micrograms of benzimidazole was applied directly to larvae or adult insects.
Using the above methods, field trials were carried out against species of 5 orders of insects. The results, which are summarized in the following tables, give the average mortality for the particular insect with a given benzimidazole for each concentration employed. […] These tables contain all results obtained during the summer trials.

[9] = tested on: Milkweed Beetle; experiment: Field trial (first summer), contact; format: in vivo; settings: 125 ppm
Description: (§3) Infested plants are placed in 6 oz. prescription bottles filled with water to keep them from wilting. Cellucotton is wrapped around the plant stem and squeezed into the bottle neck to prevent the insects from drowning.
(§4) A DeVilbiss Special Atomizer (5004) is used at 10 psi to spray the test plant with different concentrations of compounds. The atomizer is held at arm's length to prevent blowing the insects off the host plant. After treating, the bottles are placed on a table covered with brown wrapping paper to catch the dead insects as they drop from the plant. The plants are spaced so the leaves or plants are not touching one another.
as §2
(§5) During the previous summer similar field trials were conducted employing the same tests as heretofore but with some additional species of insects not included in the later tests. The results listed below are for tests in which an insect mortality was established by a given application route and at a given concentration in a particular test. The same 0 - 9 scoring system is used as is the designation of compounds by alphabetical symbols.

[10] = tested on: Picnic Beetle; experiment: Field trial (first summer), contact; format: in vivo; settings: 250 ppm
Description: as §3, §4, §2, §5

[11] = tested on: Potato Flea Beetle Adults; experiment: Field trial, contact poison test; format: in vivo
In short: (§6)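 Infested host plants were kept in water-filled bottles with cellucotton around the stem and sprayed with different compound concentrations by atomizer at 10 psi from arm's length. Mortality was read at 24, 48 and 72 h on a 0–9 scale (0 = 0-10%, 9 = 91-100% mortality), averaged per concentration.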

[12] = tested on: Asparagus Beetles Adults; experiment: Field trial, contact poison test; format: in vivo
In short: as §6

[13] = tested on: Alfalfa Weevil Larvae; experiment: Field trial, contact poison test; format: in vivo
In short: as §6

[14] = tested on: Melon Aphid; experiment: Melon Aphid Test; format: in vivo, Aphis gossypii (Hemiptera); settings: 24 h
Description: Four blue hubbard squash seeds are planted per container in vermiculite and the containers watered from the bottom. After 6 days, the two weakest plants are cut off and one cotyledon and the primary leaves are removed from each of the two remaining plants. The remaining cotyledon is infested with 100 melon aphids from a stock colony by pinning the cotyledon against an aphid-infested squash cotyledon from the colony and allowing the aphids to transfer. After transfer, the colony leaf is removed. Forty-eight hours later, the infested leaves are sprayed to wetting with formulations containing graded amounts of the insecticide using a DeVilbiss atomizer at 10 psi held at 12-15 inches from the plant. Controls consist of two infested, unsprayed squash plants and two infested plants sprayed to wetting with a formulation containing 100 ppm malathion as a reference standard. The mortality is estimated 24 hours after spraying by observation using a 10 power dissecting microscope. The same rating scale is used as before.

[15] = tested on: Milkweed Bug; experiment: Milkweed Bug Test; format: in vivo, Oncopeltis fasciatus (Hemiptera); settings: 48 h
In short: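 Ten chilled adult milkweed bugs per cage sprayed with 5 ml test formulation at 10 psi, then fed and watered. Mortality, counting moribund as dead, scored 48 h after spraying; 500 ppm malathion as reference, unsprayed cages as controls.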

[16] = tested on: House Fly; experiment: Housefly (Contact) Test; format: in vivo, Musca domestica (Diptera); settings: 24 h

In the case of `O=[N+]([O-])c1cc(C(F)(F)F)cc2nc(C(F)(F)F)[nH]c12` [A, 2,6-bis(trifluoromethyl)-4-nitrobenzimidazole], the average mortality rating ([1]; 25 ppm) is reported as 7, the average mortality rating ([1]; 50 ppm) is reported as 9 (91-100 percent mortality) and the average mortality rating ([1]; 100 ppm) is reported as 9 (91-100 percent mortality). The average mortality rating ([2]; 10 ppm) was 9 (91-100 percent mortality), the average mortality rating ([2]; 25 ppm) was 6 and the average mortality rating ([2]; 50 ppm) was 9 (91-100 percent mortality). For the same molecule, the average mortality rating ([2]; 100 ppm) was 9 (91-100 percent mortality), the average mortality rating ([3]; 25 ppm) was 1 and the average mortality rating ([3]; 50 ppm) was 4. For the same molecule, the average mortality rating ([3]; 100 ppm) was 4, the average mortality rating ([4]; 10 ppm) was 2 and the average mortality rating ([4]; 25 ppm) was 0 (0-10 percent). For the same molecule, the average mortality rating ([4]; 50 ppm) was 1, the average mortality rating ([5]; 25 ppm) was 8 and the average mortality rating ([5]; 50 ppm) was 5. It also gave an average mortality rating ([5]; 100 ppm) of 8, an average mortality rating ([6]; 125 ppm) of 7 and an average mortality rating ([6]; 250 ppm) of 7. For the same molecule, the average mortality rating ([6]; 500 ppm) was 7, the insect mortality rating ([7]; .078125 μg/μl) was 9 (91-100 percent mortality) and the average mortality rating ([8]; 0.03 μg/μl) was 2. For the same molecule, the average mortality rating ([8]; 0.07 μg/μl) was 2, the average mortality rating ([8]; 0.1 μg/μl) was 1 and the insect mortality rating [9] was 9 (91-100 percent mortality). The insect mortality rating [10] was 9 (91-100 percent mortality), the average mortality rating ([11]; 10 ppm) was 9 (91-100 percent mortality) and the average mortality rating ([11]; 25 ppm) was 9 (91-100 percent mortality). For the same molecule, the average mortality rating ([11]; 50 ppm) was 8, the average mortality rating ([11]; 100 ppm) was 8 and the average mortality rating ([11]; 250 ppm) was 9 (91-100 percent mortality). For the same molecule, the average mortality rating ([12]; 10 ppm) was 7, the average mortality rating ([12]; 25 ppm) was 7 and the average mortality rating ([12]; 50 ppm) was 8. The average mortality rating ([13]; 500 ppm) was 3, the average mortality rating ([13]; 750 ppm) was 3 and the average mortality rating ([13]; 1000 ppm) was 5.

In the case of “mixture of methyl 2,6-bis(trifluoromethyl)-4-nitro-1-benzimidazolecarboxylate and methyl 2,5-bis(trifluoromethyl)-7-nitro-1-benzimidazolecarboxylate”, the average mortality rating ([4]; 100 ppm) is reported as 5, the average mortality rating ([6]; 125 ppm) is reported as 7 and the average mortality rating ([6]; 250 ppm) is reported as 6. For the same molecule, the average mortality rating ([6]; 500 ppm) was 3, the insect mortality rating ([7]; .078125 μg/μl) was 9 (91-100 percent mortality) and the average mortality rating ([8]; 0.03 μg/μl) was 2. The average mortality rating ([8]; 0.07 μg/μl) was 1, the average mortality rating ([8]; 0.1 μg/μl) was 4 and the mortality rating ([14]; 25 ppm) was 0 (0-10). The mortality rating ([14]; 50 ppm) was 2 (21-30), the mortality rating ([14]; 100 ppm) was 4 (41-50) and the mortality rating ([14]; 250 ppm) was 9 (91-100). The mortality rating ([14]; 500 ppm) was 9 (91-100), the mortality rating ([14]; 1000 ppm) was 9 (91-100) and the insect mortality rating [9] was 9 (91-100 percent mortality). For the same molecule, the insect mortality rating [10] was 9 (91-100 percent mortality), the mortality rating ([15]; 25 ppm) was 5 (51-60) and the mortality rating ([15]; 100 ppm) was 8 (81-90). The mortality rating ([15]; 250 ppm) was 9 (91-100), the mortality rating ([15]; 500 ppm) was 9 (91-100) and the mortality rating ([15]; 1000 ppm) was 9 (91-100). The average mortality rating ([12]; 10 ppm) was 3, the average mortality rating ([12]; 25 ppm) was 8 and the average mortality rating ([12]; 50 ppm) was 9 (91-100 percent mortality). The average mortality rating ([13]; 500 ppm) was 2, the average mortality rating ([13]; 750 ppm) was 6 and the average mortality rating ([13]; 1000 ppm) was 7. For the same molecule, the mortality rating ([16]; 10 ppm) was 0 (0-10), the mortality rating ([16]; 25 ppm) was 0 (0-10) and the mortality rating ([16]; 50 ppm) was 9 (91-100). The mortality rating ([16]; 100 ppm) was 9 (91-100), the mortality rating ([16]; 250 ppm) was 9 (91-100) and the mortality rating ([16]; 500 ppm) was 9 (91-100). The mortality rating ([16]; 1000 ppm) was 9 (91-100).

Molecule `CCCCCCOC(=O)n1c(C(F)(F)F)nc2c([N+](=O)[O-])cc(C(F)(F)F)cc21` [E, n-hexyl 2,6-bis(trifluoromethyl)-4-nitro-1-benzimidazolecarboxylate] has an average mortality rating ([1]; 25 ppm) of 1, an average mortality rating ([1]; 50 ppm) of 3 and an average mortality rating ([1]; 100 ppm) of 5. For the same molecule, the average mortality rating ([2]; 10 ppm) was 9 (91-100 percent mortality), the average mortality rating ([2]; 25 ppm) was 9 (91-100 percent mortality) and the average mortality rating ([2]; 50 ppm) was 7. It also gave an average mortality rating ([2]; 100 ppm) of 8, an average mortality rating ([3]; 25 ppm) of 5 and an average mortality rating ([3]; 50 ppm) of 5. The average mortality rating ([3]; 100 ppm) was 7, the average mortality rating ([4]; 10 ppm) was 1 and the average mortality rating ([4]; 25 ppm) was 2. It also gave an average mortality rating ([4]; 50 ppm) of 3, an average mortality rating ([4]; 100 ppm) of 1 and an average mortality rating ([5]; 25 ppm) of 6. For the same molecule, the average mortality rating ([5]; 50 ppm) was 6, the average mortality rating ([5]; 100 ppm) was 8 and the average mortality rating ([6]; 125 ppm) was 1. For the same molecule, the average mortality rating ([6]; 250 ppm) was 4, the average mortality rating ([6]; 500 ppm) was 3 and the insect mortality rating ([7]; .15625 μg/μl) was 9 (91-100 percent mortality). For the same molecule, the average mortality rating ([8]; 0.03 μg/μl) was 2, the average mortality rating ([8]; 0.07 μg/μl) was 2 and the average mortality rating ([8]; 0.1 μg/μl) was 4. For the same molecule, the mortality rating ([14]; 5 ppm) was 1.5, the mortality rating ([14]; 100 ppm) was 9.5 and the insect mortality rating [9] was 9 (91-100 percent mortality). For the same molecule, the insect mortality rating [10] was 9 (91-100 percent mortality), the mortality rating ([15]; 10 ppm) was “.5” and the mortality rating ([15]; 25 ppm) was 6.5. The mortality rating ([15]; 50 ppm) was 1.5, the average mortality rating ([11]; 10 ppm) was 6 and the average mortality rating ([11]; 25 ppm) was 9 (91-100 percent mortality). For the same molecule, the average mortality rating ([11]; 50 ppm) was 9 (91-100 percent mortality), the average mortality rating ([11]; 100 ppm) was 9 (91-100 percent mortality) and the average mortality rating ([11]; 250 ppm) was 9 (91-100 percent mortality). For the same molecule, the average mortality rating ([12]; 10 ppm) was 7, the average mortality rating ([12]; 25 ppm) was 8 and the average mortality rating ([12]; 50 ppm) was 9 (91-100 percent mortality). For the same molecule, the average mortality rating ([13]; 500 ppm) was 4, the average mortality rating ([13]; 750 ppm) was 2 and the average mortality rating ([13]; 1000 ppm) was 4. For the same molecule, the mortality rating ([16]; 10 ppm) was 4.5 and the mortality rating ([16]; 50 ppm) was 1.5.

— US4122184A, “Benzimidazole insecticides” (priority 1977, dated 1978)
